Experimental data taken from patent US20030109462A1, “Novel naringenin derivatives and use thereof” (Japan Science and Technology Corporation, priority 2001, published 2003).
Entries after “also recorded” stand apart in the source; their conditions may differ.

Legend:
[1] = system: cowpea weevil (C. maculatus); assay: Insecticidal test on artificial beans, cowpea weevil; format: in vivo, Callosobruchus maculatus; settings: cowpea weevils
Method: (§1) These two species of bean weevils were cultured in the same way. In a 9 cm Petri dish containing 300 mungbean seeds, was placed ten adults of bean weevil and egg production was induced. After egg production, the adults were removed and cultured in a thermostatically controlled incubator at 60% humidity and 30° C. After 25 to 30 days from the egg production, the adults emerged. The emerged adults were used in the test for insecticidal activity.
To 1 g of the cotyledon powder of mungbean was added a small quantity of water to make bean-like solid material (about 0.25 g), which was freeze-dried. This material was called artificial bean (mungbean 100%) and used in the test. […]
One artificial seed each of artificial beans in this test was placed in a 9 cm Petri dish, on which the adults of azuki bean weevils or cowpea weevils shortly after the emergence were put and induced to lay eggs. […] The number of eggs laid on the artificial beans was recorded, and the number of the adults that emerged from the artificial beans was continuously recorded for up to 50 days after the egg production to calculate the rate of emergence. The artificial beans on which no emergence was recorded by the 50th day after eggs were laid were split with a pair of forceps and checked as to whether there was any larvae in the artificial seed. […]

[2] = system: two species of bean weevils: azuki bean weevil (Callosobruchus chinensis) and cowpea weevil (C. maculatus); assay: Insecticidal test on artificial beans, one result stated for both bean weevil species; format: in vivo
Method: Two species of bean weevils, i.e., azuki bean weevil (Callosobruchus chinensis) and cowpea weevil (C. maculatus) were employed. Cowpea weevil was obtained from Kasetsart University, Thailand, under an import license from the Plant Quarantine Office of Japan and subcultured.
as §1
(§2) To 1 g of the cotyledon powder of mungbean was added a small quantity of water to make bean-like solid material (about 0.25 g), which was freeze-dried. This material was called artificial bean (mungbean 100%) and used in the test.
(§3) The artificial beans (mungbean 100%) were placed in a 9 cm Petri dish, on which was then put the adults shortly after their emergence and eggs were laid on the artificial seeds. The culture environment was fixed at a temperature of 30° C. and a humidity of 60%. After a lapse of 25 to 30 days from the egg production, the adults normally emerged from the artificial beans (mungbean 100%). Thus, it became clear that the bean weevils can utilize the artificial beans for their egg production and emergence, and it was confirmed that the artificial beans are useful in a test of insecticidal activity for bean weevils.
(§4) One artificial seed each of artificial beans in this test was placed in a 9 cm Petri dish, on which the adults of azuki bean weevils or cowpea weevils shortly after the emergence were put and induced to lay eggs. After egg production, the adults were cultured in an incubator fixed at 30° C. and 60% humidity. The number of eggs laid on the artificial beans was recorded, and the number of the adults that emerged from the artificial beans was continuously recorded for up to 50 days after the egg production to calculate the rate of emergence. The artificial beans on which no emergence was recorded by the 50th day after eggs were laid were split with a pair of forceps and checked as to whether there was any larvae in the artificial seed. This experiment, the insecticidal test on the artificial beans, was repeated 4 times.
(§5) The value represented by the weight (g) of the artificial beans which can be prepared from the total weight of rice bean seed powder according to the minimum lethal concentration was regarded as the total activity of the rice bean seed powder. (The value derived by dividing the total weight of rice bean seed powder by the minimum lethal concentration)
(§6) Moreover, the total activity for 1 g of the rice bean seed powder was calculated as specific activity (units/g).
(§7) Insecticidal activity was observed by calculating total activity and specific activity under the same conditions and following the same procedure as in Experiment 1, except that the extract obtained in each step of purification was used in place of the seed powder of rice bean.

[3] = system: larva of giant tobacco budworm (Heliothis obsoleta Fabricius); settings: cited from earlier work
[4] = system: azuki bean weevil (Callosobruchus chinensis); assay: Insecticidal test on artificial beans, azuki bean weevil; format: in vivo
Method: as §1, §2, §3, §4, §5, §6, §7

[5] = Table 2, purification without silica gel, two species of bean weevils
[6] = Table 1, steps from silica gel chromatography on, activity to azuki bean weevils

| Compound | insecticidal activity (in words) [1] | Specific activity [2, 5] | Total activity [2, 5] | rate of emergence ([2]; artificial beans containing 0.05%, 0.1%, or 0.2% of the 5th peak, both species) | rate of emergence ([2]; artificial beans containing 0.1% of the 5th peak, two species) | rate of emergence ([2]; artificial beans containing 0.2% of the 5th peak, two species) | insecticidal activity (in words) ([2]; azuki bean weevils and cowpea weevils) | minimum lethal concentration ([2]; concentration in artificial beans required for emergence rate 0%, both weevil species) | insecticidal effect (in words) [3] | Specific activity [4, 6] | Total activity [4, 6] | rate of emergence ([4]; artificial beans containing 0.05%, 0.1%, or 0.2% of the 7th peak, azuki bean weevils) | rate of emergence ([4]; artificial beans containing 0.1% of the 7th peak) | rate of emergence ([4]; artificial beans containing 0.2% of the 7th peak) | insecticidal activity (in words) ([4]; azuki bean weevils) | minimum lethal concentration ([4]; concentration in artificial beans required for emergence rate 0%, azuki bean weevils) |
| --- | --- | --- | --- | --- | --- | --- | --- | --- | --- | --- | --- | --- | --- | --- | --- | --- |
| O=C1C[C@H](c2ccc(O)cc2)Oc2cc(O)c([C@@H]3O[C@H](CO)[C@@H](O)[C@H](O)[C@H]3O)c(O)c21 [6-C-β-D-glucosyl-(R)-naringenin] | insecticidally active | 1000.0 units/g | 8.0 units | low | 0% | 0% | insecticidal substance active to azuki bean weevils and cowpea weevils | 0.1% |  |  |  |  |  |  |  |  |
| O=c1cc(-c2ccc(O)c(O)c2)oc2cc(O)c([C@@H]3O[C@H](CO)[C@@H](O)[C@H](O)[C@H]3O)c(O)c12 [6-C-β-D-glucosyl-luteolin] |  |  |  |  |  |  |  |  | insecticidal effect |  |  |  |  |  |  |  |
| O=C1C[C@H](c2ccc(O)cc2)Oc2c1c(O)cc(O)c2[C@@H]1O[C@H](CO)[C@@H](O)[C@H](O)[C@H]1O [8-C-β-D-glucosyl-(R)-naringenin] | only to azuki bean weevils |  |  |  |  |  |  |  |  | 1000.0 units/g | 2.0 units | low | 0% | 0% | insecticidal substance active to azuki bean weevils; also recorded: shows insecticidal activity | 0.1% |
